Experimental data published in patent US9238034B2, “FN14 antagonists and therapeutic uses thereof” (THE TRANSLATIONAL GENOMICS RESEARCH INSTITUTE, priority 2013, dated 2016).

What was measured:
[1] = test system: TNFα-induced NF-κB activity; assay: Counter-screen NF-κB luciferase assay, NF-κB-Luc reporter cells stimulated with TNFα; assay type: cell-based, human
Protocol: Briefly, Fn14-NF-κB-Luc reporter cells, (Fn14 overexpressing HEK293 NF-κB luciferase cells), were seeded in tissue culture treated white 96-well plates at 1×10^4 cells/well in 80 μL Opti-MEM media (Invitrogen) and incubated for 48 hr at 37° C. After 48 hr incubation, 10 μL of the drug solution (200 μM) in DMSO was added to the designated wells at a final concentration of 20 μM. After 1 hr of drug incubation at 37° C., 10 μL of 10× purified recombinant TWEAK (Peprotech Inc.; 300 ng/mL) in 1 mg/mL BSA in PBS was added to each well and incubated for 5 hr at 37° C. DMSO alone was used as a negative control whereas anti-TWEAK antibody suspended in DMSO was used as a positive control for the assay. Luminescent signal was determined using Bright-Glo assay kit (Promega, Madison, Wis.) according to the manufacturer's instructions and normalized to negative control. A counter-screen assay was carried out using TNFα to stimulate NF-κB activity in NF-κB-Luc reporter cells (HEK293 NF-κB luciferase cells). The counter-screen assay was performed similar to the drug screening assay described above, except 10 μL of 10× purified recombinant TNFα (R&D Scientific; 300 ng/mL) in 1 mg/mL BSA in PBS was added to each well instead of TWEAK for NF-κB activation. […] IC50 values for dose response curve were determined using the curve fitting functionality of GraphPad Prism software.

Fn14 = target: T1, Fn14 (Homo sapiens, UniProt Q9NP84); assay: Surface Plasmon Resonance assay, Fn14-Fc sensor surface; assay type: binding; conditions: Fn14 surface, SPR, 25 degrees Celsius
T1 construct: the human Fc fragment-tagged Fn14 extracellular domain (R&D Systems) was captured
T1 sequence (Q9NP84 28-80 limits assumed): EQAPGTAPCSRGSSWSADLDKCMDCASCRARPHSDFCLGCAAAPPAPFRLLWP
Protocol: Surface Plasmon Resonance (SPR) Assay. The binding affinity of at least one of the compounds (e.g., L524-0366) to TWEAK and Fn14-Fx was determined using a BIAcore T100 optical biosensor (GE Healthcare) at 25 degrees Celsius at the Arizona Proteomics Consortium. Recombinant human TWEAK (20 μg/mL in 10 mM HEPES pH 7.4, 150 mM NaCl, 3 mM EDTA, 0.05% Tween 20) or recombinant human Fn14-Fc (20 μg/mL in 10 mM NaOAc pH 4.0) were covalently coupled to separate flow cells on a BIAcore CM5 sensor chip using standard amine coupling chemistry as per manufacturer's protocol. Final immobilization levels were 6000 Response Units (RU) for TWEAK and 13,000 RU for FN14-Fc. The first flow path of the chip was treated with the same coupling and blocking reagents without protein and was used as a reference for each binding cycle. Functionality of the TWEAK and the Fn14-Fc sensor surfaces were verified by injecting Fn14-Fc and TWEAK over them respectively. Serial dilutions of L524-0366 or cycloheximide (control) from 0 to 50 μM were made in running buffer (10 mM HEPES pH 7.4, 150 mM NaCl, 3 mM EDTA, 1% DMSO). […] Equilibrium dissociation constants for the small molecules were calculated by fitting the double reference subtracted data to Req=((CRmax)/(KD+C))+RI, where RI is the bulk refractive index contribution.

T98G glioma cells = assay: Cytotoxicity assay, CellTiter-Glo; assay type: cell-based, human; conditions: up to 50 μM, 72 hr
Protocol: Cytotoxicity Assay. Cytotoxic effects of drugs on glioma cells were analyzed by quantifying the ATP, an indicator of metabolically active cells. Briefly, glioma cells were seeded in tissue culture treated white 96-well plates at 3×10^3 cells/well in 80 μL Opti-MEM media (Invitrogen) and incubated for 24 hr at 37° C. After 24 hr incubation, 20 μL of 5× drug solution at required concentration in Opti-MEM was added to each well and incubated for 72 hr at 37° C. Opti-MEM/DMSO mixture without drug was used as negative control and 20 μM staurosporine was used as positive control. At the end of 72 hr incubation, the number of viable cells were quantified by using CellTiter-Glo assay kit (Promega, Madison, Wis.) according to the manufacturer's instructions. Luminescence signal measured was normalized to negative control to determine % cell viability.

TWEAK-Fn14 signaling = assay: Cell based NF-κB luciferase reporter assay, Fn14-NF-κB-Luc cells stimulated with TWEAK; parameters: species or system human
Protocol: NF-κB luciferase reporter Assay. The capacity of sTWEAK or sTWEAK variants to activate Fn14 signaling was evaluated using engineered reporter cell lines that express luciferase upon NF-κB activation. Two reporter cell lines were utilized for these experiments. HEK293 NF-κB luciferase (courtesy of Dr. Jeff Winkles) were generated by transfecting HEK293 cells with a reporter plasmid containing 5 copies of a consensus NF-κB binding site upstream of a minimal CMV promoter driving expression of firefly luciferase. The second cell line, designated HEK293 NF-κB luciferase Fn14 FL, was generated by stably transfecting the HEK293 NF-κB luciferase cell line with full length Fn14. To assay the binding of sTWEAK or sTWEAK variants to Fn14, reporter cells were seeded in tissue culture treated white 96-well plates at 1×10^4 cells/well in 80 μL Opti-MEM media (Invitrogen) and incubated for 48 hr at 37° C. After 48 hr incubation, 20 μL of 5× purified recombinant TWEAK (Peprotech Inc.; 150 ng/mL) in 1 mg/mL BSA in PBS was added to each well and incubated for 5 hr at 37° C. as positive control. Similarly, equivalent amounts of sTWEAK or sTWEAK variant prepared via IVTTas determined using ELISA assay described above was added in 20 μl. IVTT solution lacking a cDNA template in 1 mg/mL BSA in PBS and 1 mg/mL BSA in PBS alone was used as an additional control. At the end of 5 hr incubation, the luminescent signal was determined using Bright-Glo assay kit (Promega, Madison, Wis.) according to the manufacturer's instructions.
Briefly, Fn14-NF-κB-Luc reporter cells, (Fn14 overexpressing HEK293 NF-κB luciferase cells), were seeded in tissue culture treated white 96-well plates at 1×10^4 cells/well in 80 μL Opti-MEM media (Invitrogen) and incubated for 48 hr at 37° C. […] Luminescent signal was determined using Bright-Glo assay kit (Promega, Madison, Wis.) according to the manufacturer's instructions and normalized to negative control. […] IC50 values for dose response curve were determined using the curve fitting functionality of GraphPad Prism software.

Structure (SMILES): O=C(c1cn(-c2cccc(Cl)c2)nn1)N1CCSCC1 [Compound L524-0366]
- IC50 ([1]; Homo sapiens, NF-κB-Luc cells stimulated with TNFα, 0.75 μM to 250 μM, read-out: IC50, TNFα stimulated luciferase induction): 31 µM
- inhibition of TNFα-induced NF-κB driven luciferase activity ([1]; NF-κB-Luc cells, 20 μM): only minor inhibition
- Kd (Fn14): 7.12 µM
- cytotoxicity (T98G glioma cells): did not demonstrate any cytotoxicity
- inhibition of TWEAK-induced NF-κB driven luciferase activity (TWEAK-Fn14 signaling; Fn14-NF-κB-Luc cells, 20 μM): significant inhibition
- IC50 (TWEAK-Fn14 signaling; Homo sapiens, Fn14-NF-κB-Luc cells stimulated with TWEAK, 0.75 μM to 250 μM, read-out: IC50, TWEAK-Fn14 stimulated luciferase induction): 7.8 µM
- fold higher inhibitory activity against TWEAK-Fn14 signaling (TWEAK-Fn14 signaling; TWEAK/Fn14-NF-κB-Luc versus TNFα/NF-κB-Luc IC50): approximately 5 fold
